Source: article PMC8428568, “Discovery of re-purposed drugs that slow SARS-CoV-2 replication in human cells” (PLoS Pathogens, 2021)
Structures can show the parent of a compound that is named as a salt. Where two headings read alike, the source gives them in different places. *1 amine or outer side, *2 acyl side, *3 side chain or, on linkers, in order; H or OH if unused. Where a SMILES comes first, the peptide text is derived from it. Bridges are numbered along the chain shown (N, C = ends). [ ]: non-standard residue; d: D form. The star is where a group is joined. pTerphenylCO(4''-OnC5H11) = CCCCCOc1ccc(-c2ccc(-c3ccc(C(=O)*)cc3)cc2)cc1; Orn(4R-OH,5R-OH) = O=C([C@H](C[C@@H](O)[C@@H](O)N[*:3])N[*:1])[*:2]; hTyr(3S-OH,4S-OH) = N[C@H](C(=O)O)[C@H](O)[C@@H](O)c1ccc(O)cc1; Pro(3S-OH,4S-Me) = C[C@H]1CN[C@H](C(=O)O)[C@H]1O; Hyp = O=C(O)[C@@H]1C[C@@H](O)CN1

How the values were obtained:
[1] = system: recombinant NLuc; type: biochemical; details: for Relative Recombinant NLUC: recombinant NLuc activity relative to DMSO; for Reads Counts per second (read 1) / Reads Counts per second (read 4) / Reads Counts per second (read 2) / Reads Counts per second (read 3): recombinant NLuc; for Reads Counts per second (read 1): first read column; for Reads Counts per second (read 4): fourth read column; for Reads Counts per second (read 3): third read column
[2] = system: SARS-CoV-2-ΔOrf7a-NLuc virus; experiment: microbe, parasite or virus in culture; type: cell-based; details: for activity at 10 µM: Severe acute respiratory syndrome coronavirus 2, Vero, 72 h, read-out: Mean relative luminescence (n=4); for activity at 10 µM / Mean relative luminescence (n=4): 1 = untreated, 0 = total inhibition
[3] = system: Vero cells
[4] = Vero cells, 10 μM, 1 = DMSO-treated infected cells

Row | Compound | Relative Recombinant NLUC [1] | Reads Counts per second (read 1) [1] | Reads Counts per second (read 4) [1] | Reads Counts per second (read 2) [1] | Reads Counts per second (read 3) [1] | % activity in Vero 100PFU screen [2] | activity at 10 µM [2] | PrestoBlue relative viability [3, 4] | Mean relative luminescence (n=4) [2] | PrestoBlue relative viability ([3]; African green monkey)
1 | C[C@]12CC[C@H](O)CC1=CC[C@@H]1[C@@H]2CC[C@]2(C)C(c3cccnc3)=CC[C@@H]12 [Abiraterone] | 0.7592 | 279631 Counts per second | 289231 Counts per second | 289523 Counts per second | 288897 Counts per second | 6.46% | 6.48% | 0.5649 | – | –
2 | CCCCCOc1ccc(-c2ccc(-c3ccc(C(=O)N[C@H]4C[C@@H](O)[C@@H](O)NC(=O)[C@@H]5[C@@H](O)[C@@H](C)CN5C(=O)[C@H]([C@@H](C)O)NC(=O)[C@H]([C@H](O)[C@@H](O)c5ccc(O)cc5)NC(=O)[C@@H]5C[C@@H](O)CN5C(=O)[C@H]([C@@H](C)O)NC4=O)cc3)cc2)cc1 [Anidulafungin] ({pTerphenylCO(4''-OnC5H11)}-[Orn(4R-OH,5R-OH)]T[Hyp][hTyr(3S-OH,4S-OH)]T[Pro(3S-OH,4S-Me)]; lactam 1-C) | 0.974 | 365229 Counts per second | 366012 Counts per second | 376574 Counts per second | 364202 Counts per second | 4.57% | 2.32% | 0.5453 | – | –
3 | COc1ccc(-n2nc(C(N)=O)c3c2C(=O)N(c2ccc(N4CCCCC4=O)cc2)CC3)cc1 [Apixaban] | – | – | – | – | – | – | 0.124% | 2.564 | – | –
4 | O=C(/C=C/c1cccc(S(=O)(=O)Nc2ccccc2)c1)NO [Belinostat (PXD101), Belinostat] | 0.9408 | 351877 Counts per second | 355423 Counts per second | 362403 Counts per second | 352055 Counts per second | 4.67% | 0.0366% | 0.895 | – | –
5 | Clc1ccc(CCC(Cn2ccnc2)Sc2c(Cl)cccc2Cl)cc1 (stereo not drawn) [Butoconazole nitrate] | – | – | – | – | – | – | 11.6% | 0.6922 | – | –
6 | C=CC(=O)Nc1cccc(Nc2nc(Nc3ccc(N4CCN(C(C)=O)CC4)cc3OC)ncc2C(F)(F)F)c1 [CO-1686 (AVL-301)] | 0.8551 | 327566 Counts per second | 319872 Counts per second | – | 324163 Counts per second | 3% | – | 0.5096 | 0.02339 | –
7 | COc1cc2c(Oc3ccc4[nH]c(C)cc4c3F)ncnc2cc1OCCCN1CCCC1 [Cediranib (AZD217), Cediranib] | 0.9439 | 350524 Counts per second | 362844 Counts per second | – | 354116 Counts per second | 3.31% | 2.67% | 0.559 | – | –
8 | Oc1c(Cl)cc(Cl)c2cccnc12 [Chloroxine] | 0.9975 | 380665 Counts per second | 374884 Counts per second | – | 374596 Counts per second | 6.5% | 3.55% | 0.5777 | – | –
9 | CC(C)C(=O)OCC(=O)[C@@]12O[C@H](C3CCCCC3)O[C@@H]1C[C@H]1[C@@H]3CCC4=CC(=O)C=C[C@]4(C)[C@H]3[C@@H](O)C[C@@]12C [Ciclesonide] | – | – | – | – | – | – | 14.1% | 0.5125 | – | –
10 | Clc1ccccc1C(c1ccccc1)(c1ccccc1)n1ccnc1 [Clotrimazole] | – | – | – | – | – | – | 13.9% | 1.057 | – | –
11 | C#C[C@]1(O)CC[C@H]2[C@@H]3CCC4=CCCC[C@@H]4[C@H]3C(=C)C[C@@]21CC [Desogestrel] | – | – | – | – | – | – | 14.5% | 0.6657 | – | –
12 | C=C1/C(=C\C=C2/CCC[C@]3(C)[C@@H]([C@H](C)/C=C/[C@H](C)C(C)C)CC[C@@H]23)C[C@@H](O)C[C@@H]1O [Doxercalciferol] | 0.9613 | 361602 Counts per second | 356613 Counts per second | – | 370984 Counts per second | 8% | 5.56% | 0.5418 | – | –
13 | CC1=NN(c2ccc(C)c(C)c2)C(=O)/C1=N\Nc1cccc(-c2cccc(C(=O)O)c2)c1O [Eltrombopag] | 0.8666 | 331875 Counts per second | 322913 Counts per second | – | 331553 Counts per second | 3.72% | 0.991% | 0.7191 | – | –
14 | COc1cccc2c1C(=O)c1c(O)c3c(c(O)c1C2=O)C[C@@](O)(C(=O)CO)C[C@@H]3O[C@H]1C[C@H](N)[C@@H](O)[C@H](C)O1 [Epirubicin HCl] | 0.8025 | 298948 Counts per second | 310338 Counts per second | – | 302560 Counts per second | 3.44% | 2.8% | – | – | 0.9127
15 | CCCCCCCCc1ccc(CCC(N)(CO)CO)cc1 [Fingolimod (FTY720), Fingolimod] | 0.9393 | 354171 Counts per second | 351555 Counts per second | – | 356587 Counts per second | 3% | 0.757% | 0.6911 | – | –
16 | CC(=O)[C@]1(O)Cc2c(O)c3c(c(O)c2[C@@H](O[C@H]2C[C@H](N)[C@H](O)[C@H](C)O2)C1)C(=O)c1ccccc1C3=O [Idarubicin HCl] | 0.861 | 327538 Counts per second | 318222 Counts per second | – | 325691 Counts per second | 2.14% | 1.49% | 0.5406 | – | –
17 | Cc1cc(Nc2cc(CN3CCOCC3)c3nc(C)c(Cc4ccc(Cl)cc4F)n3n2)n[nH]1 [LY2784544] | – | – | – | – | – | – | 0.145% | 0.7859 | – | –
18 | Nc1cccc2c1CN(C1CCC(=O)NC1=O)C2=O (stereo not drawn) [Lenalidomide (CC-5013), Lenalidomide] | – | – | – | – | – | – | 0.218% | 2.058 | – | –
19 | CCN1C[C@H](C)n2c(c(O)c3c(=O)n(Cc4ccc(F)c(Cl)c4)nc(C(=O)NC)c32)C1=O [MK-2048] | – | – | – | – | – | – | – | 2.267 | 0.000491 | –
20 | NCCC(O)(P(=O)([O-])O)P(=O)([O-])O.[Na+].[Na+] [Pamidronate Disodium] | 0.8313 | 309519 Counts per second | 313941 Counts per second | – | 313471 Counts per second | 2.29% | – | 0.5456 | 0.01648 | –
21 | CCc1ccc(CCOc2ccc(CC3SC(=O)NC3=O)cc2)nc1 (stereo not drawn) [Pioglitazone HCl] | – | – | – | – | – | – | 0.204% | – | – | 3.485
22 | COc1ccccc1OCC(O)CN1CCN(CC(=O)Nc2c(C)cccc2C)CC1 (stereo not drawn) [Ranolazine] | 0.9679 | 359507 Counts per second | 367791 Counts per second | – | 367539 Counts per second | 167% | – | – | – | –
23 | CN(CCOc1ccc(CC2SC(=O)NC2=O)cc1)c1ccccn1 (stereo not drawn) [Rosiglitazone] | – | – | – | – | – | – | 0.183% | 3.111 | – | –
24 | N#CC[C@H](C1CCCC1)n1cc(-c2ncnc3[nH]ccc23)cn1 [Ruxolitinib (INCB018424), Ruxolitinib] | 0.8381 | 314540 Counts per second | 316727 Counts per second | – | 317488 Counts per second | 169% | – | – | – | –
25 | N[C@@H](CC(=O)N1CCn2c(nnc2C(F)(F)F)C1)Cc1cc(F)c(F)cc1F [Sitagliptin phosphate monohydrate] | – | – | – | – | – | – | 0.0141% | 2.5607 | – | –
26 | CCCCCCCCCCCCCCCC[N+](C)(C)CCN(Cc1ccc(OC)cc1)c1ncccn1 [Thonzonium Bromide] | – | – | – | – | – | – | 10.4% | 0.6049 | – | –
27 | Oc1cc(Cl)ccc1Oc1ccc(Cl)cc1Cl [Triclosan] | – | – | – | – | – | – | 10.6% | 0.5234 | – | –
28 | (+)-Catechin hydrate | 0.9621 | 362209 Counts per second | 367703 Counts per second | 357899 Counts per second | 366108 Counts per second | 160% | – | – | – | –
29 | Bivalirudin Trifluoroacetate | 0.8139 | 309590 Counts per second | 301908 Counts per second | 311058 Counts per second | 307409 Counts per second | 172% | – | – | – | –
